Results taken from patent publication US11021511B2, “Cyclic dinucleotides as sting agonists” (Janssen Biotech, Inc., priority 2017, dated 2021).
pEC50, pIC50: −log10 of the molar value.

What was measured:
[1] = tested on: THP1-Blue ISG cells; assay: Human interferon-β induction assay; assay type: cell-based; conditions: total cumulative IFN-β induction over the dose range tested (0.78 to 50 μM) in THP-1 Blue cells
Protocol: THP1-Blue ISG cells are used to measure the secretion of IFN-β into the culture supernatant following STING pathway activation. To run the assay, anti-IFN-β capture antibodies were coated on 96 well MultiArray plates (Mesoscale Discovery). After a one hour incubation, plates were washed and 50 μL supernatant from the STING human cell reporter assay plates or IFN-β standards were mixed with 20 μL Sulfotag-conjugated detection antibody in the coated plates. Plates were incubated, shaking for 2 h, washed, and read buffer was applied. Electrochemiluminescence was measured on the SectorImager.

[2] = tested on: primary human PBMC; assay: PBMC activation, CD54 upregulation on monocytes by flow cytometry; assay type: cell-based; conditions: 20 μM, 48 h, relative to resting cells
Protocol: Concurrently, PBMC were isolated as described previously. To stimulate the PBMC, 10,000,000 cells were dispensed into 400 μL/well of flat-bottom, tissue culture treated, 24-well plates. Test compounds were added in a volume of 100 μL, then the cultures were incubated for 48 h at 37° C., 5% CO2. Supernatants were harvested. Cells were measured for activation marker upregulation using flow cytometery. Briefly, cells were stained with fluorescently labeled antibodies directed to CD56, CD19, CD3, CD8a, CD14, CD69, CD54, CD161, CD4 and CD80. Samples were analyzed on an Attune N×T flow cytometer (Thermo Fisher, Carlsbad, Calif.)
PBMCs were stimulated with 20 μM of CDN for 48 h. Cells were assessed by flow cytometry for upregulation of CD54 on monocytes. The fold increase in Mean Fluoresence Intensity was calculated relative to the levels on resting cells. The data is an average of two independent donors.

[3] = target: human STING (Homo sapiens (Human), UniProt Q86WV6, H232R); assay: human STING SPA binding assay
Sequence of human STING (Q86WV6 139-379 H232R): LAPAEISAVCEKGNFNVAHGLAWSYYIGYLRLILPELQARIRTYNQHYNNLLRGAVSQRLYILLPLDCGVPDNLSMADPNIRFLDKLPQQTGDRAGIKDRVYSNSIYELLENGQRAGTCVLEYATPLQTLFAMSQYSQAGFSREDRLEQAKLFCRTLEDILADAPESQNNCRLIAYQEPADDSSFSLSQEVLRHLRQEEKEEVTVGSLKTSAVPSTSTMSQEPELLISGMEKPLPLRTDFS
Protocol: The HIS tag is cleaved after purification and prior to biotinylation.
Test compounds (80 nL) were added with an acoustic dispenser (EDC Biosystems) in 100% DMSO for a final assay concentration of 1% DMSO. Plates were centrifuged for 1 min and incubated for 60 min at room temperature. Finally, (2 μL) polystyrene streptavidin SPA beads (PerkinElmer RPNQ0306) were added and plates were sealed and centrifuged for 1 min at room temperature. Plates were dark adapted for 2 h and read on a ViewLux (Perkin Elmer) for 12 min per plate.

[4] = tested on: human STING pathway in THP1-ISG cells; assay: STING human cell reporter assay; assay type: cell-based; conditions: SEAP reporter, 24 h
Protocol: Agonism of the human STING pathway is assessed in THP1-ISG cells (Invivogen, cat #thp-isg) derived from human THP1 monocyte cell line by stable integration of an interferon regulatory factor (IRF)-inducible SEAP reporter construct. THP1-Blue ISG cells express a secreted embryonic alkaline phosphatase (SEAP) reporter gene under the control of an ISG54 minimal promoter in conjunction with five interferon (IFN)-stimulated response elements. As a result, THP1-Blue ISG cells allow the monitoring of IRF activation by determining the activity of SEAP. The levels of IRF-induced SEAP in the cell culture supernatant are readily assessed with alkaline phosphatase detection medium, a SEAP detection reagent. These cells are resistant to Zeocin. […] To run the assay, 60,000 cells were dispensed in 30 μL/well of a white, opaque bottom tissue culture treated 384-well plate.
Test compounds were added in a volume of 10 μL (1% DMSO final concentration). Compounds are initially prepared in 100% DMSO, spotted on an intermediate dilution plate and then diluted in media prior to transfer. The assay was incubated for 24 h at 37° C., 5% CO2 then plates were centrifuged at 1200 rpm (120×g) for 5 min. […]

Structure (SMILES) | human IFN-β (ranking value) [1] | also measured
COC1C2COP(=O)(S)OC3C(COP(=O)(S)OC1C(n1cnc4c(=O)[nH]c(N)nc41)O2)OC(n1cnc2c(N)ncnc21)C3F (single isomer, unassigned) [Compound 6a] | 2427 | 
COC1C2COP(=O)(S)OC3C(COP(=O)(S)OC1C(n1cnc4c(=O)[nH]c(N)nc41)O2)OC(n1cnc2c(N)ncnc21)C3F (single isomer, unassigned) [Compound 6b] | 904 | 
COC1C2COP(=O)(S)OC3C(COP(=O)(S)OC1C(n1cnc4c(=O)[nH]c(N)nc41)O2)OC(n1cnc2c(N)ncnc21)C3F (single isomer, unassigned) [Compound 6c] | 4266 | 
COC1C2COP(=O)(S)OC3C(COP(=O)(S)OC1C(n1cnc4c(=O)[nH]c(N)nc41)O2)OC(n1cnc2c(N)ncnc21)C3F (single isomer, unassigned) [Compound 6d] | 3039 | 
Nc1nc2c(ncn2[C@@H]2O[C@@H]3COP(=O)(O)O[C@H]4[C@@H](O)[C@H](n5cnc6c(N)ncnc65)O[C@@H]4COP(=O)(O)O[C@@H]2[C@@H]3O)c(=O)[nH]1 [4-2′3′-cGAMP, (2′,3′)cyclic guanosine monophosphate-adenosine monophosphate] |  | MFI, fold increase of CD54 on monocytes [2]: 4.5
CC1(O)C2OP(=O)(O)OCC3OC(n4cnc5c(=O)[nH]c(N)nc54)C(OP(=O)(O)OCC2OC1n1cnc2c(N)ncnc21)C3O (centres unmarked) [Compound 1] |  | pIC50 [3]: 4.26; pEC50 [4]: 5.74
COC1C2COP(=O)(O)OC3C(COP(=O)(O)OC1C(n1cnc4c(=O)[nH]c(N)nc41)O2)OC(n1cnc2c(N)ncnc21)C3F (centres unmarked) [Compound 5] | 1024 | 
